# The source made the active and inactive calls. The rule behind the calls is not given here.
# Assays:
# A2780 [1] = assay: Induction of apoptosis in human A2780 cells assessed as late apoptotic cells at 4 nM measured after 24 hrs by Annexin V-FITC/PI flow cytometry (reference value: 2.54%); assay type: functional
# A2780 [2] = assay: Antiproliferative activity against human A2780 cells assessed as number of fluorescent dots in presence of p53 SiRNA 1 in presence of bafilomycin A1 at 4 nM measured after 24 hrs by KitkFluor555 Click-iT EdU Kit staining assay; assay type: functional, cell-based
# A2780 [3] = assay: Induction of LC3II expression in human A2780 cells at 5 to 20 nM measured after 24 hrs by Western blot analysis; assay type: functional, cell-based; conditions: dose 5-20 nM
# A2780 [4] = assay: Reduction in p62 expression in human A2780 cells in presence of autophagy inhibitor bafilomycin A1 at 5 to 20 nM measured after 24 hrs by Western blot analysis; assay type: functional, cell-based; conditions: dose 5-20 nM
# A2780 [5] = assay: Induction of apoptosis in human A2780 cells assessed as increase in cleaved caspase 9 level measured after 12 to 48 hrs by Western blot analysis; assay type: functional, cell-based; conditions: dose 5-20 nM, time 12-48 hrs
# A2780 [6] = assay: Induction of cell cycle arrest in human A2780 cells assessed as accumulation of cells at G1 phase in presence of SB203580 at 4 nM measured after 24 hrs by PI staining based Cell Cycle Analysis Kit (KeyGEN) (reference value: 54.2%); assay type: functional
# [7] = Toxicity in BALB/c-nu mouse subcutaneously inoculated with human A2780 cells assessed as morphological changes of heart at 3 to 5 mg/kg, ip administered every day for 20 days by HE staining analysis; assay type: organism-based; conditions: in vivo, sc, 480 h, dose 3-5 mg/kg, time 20 day
# A2780 [8] = assay: Induction of cell cycle arrest in human A2780 cells assessed as accumulation of cells at G1 phase at 1 nM measured after 24 hrs by PI staining based ell Cycle Analysis Kit (KeyGEN) (reference value: 53.9%); assay type: functional
# A2780 [9] = assay: Inhibition of colony formation in human A2780 cells in presence of SB203580 at 0.25 nM incubated for 48 hrs by crystal violet staining based colony counting method; assay type: functional, cell-based
# A2780 [10] = assay: Induction of cell cycle arrest in human A2780 cells assessed as accumulation of cells at S phase at 2 nM measured after 24 hrs by PI staining based ell Cycle Analysis Kit (KeyGEN) (reference value: 10%); assay type: functional
# [11] = Toxicity in BALB/c-nu mouse subcutaneously inoculated with human A2780 cells assessed as morphological changes of spleen at 3 to 5 mg/kg, ip administered every day for 20 days by HE staining analysis; assay type: organism-based; conditions: in vivo, sc, 480 h, dose 3-5 mg/kg, time 20 day
# A2780 [12] = assay: Induction of apoptosis in human A2780 cells assessed as early apoptotic cells in presence of SB203580 at 8 nM measured after 24 to 72 hrs by Annexin V-FITC/PI flow cytometry (reference value: 2.82%); assay type: functional; conditions: time 24-72 hrs
# A2780 [13] = assay: Induction of apoptosis in human A2780 cells assessed as necrotic cells at 800 nM measured after 24 hrs by Annexin V-FITC/PI flow cytometry (reference value: 0.18%); assay type: functional
# A2780 [14] = assay: Induction of cell cycle arrest in human A2780 cells assessed as accumulation of cells at G1 phase at 4 nM measured after 24 hrs by PI staining based ell Cycle Analysis Kit (KeyGEN) (reference value: 53.9%); assay type: functional
# A2780 [15] = assay: Induction of apoptosis in human A2780 cells assessed as early apoptotic cells in presence of bafilomycin A1 at 800 nM measured after 24 hrs by Annexin V-FITC/PI flow cytometry (reference value: 2.17%); assay type: functional
# A2780 [16] = assay: Induction of apoptosis in human A2780 cells assessed as decrease in cleaved Bcl-xL level measured at 5 to 20 nM after 12 to 48 hrs by Western blot analysis; assay type: functional, cell-based; conditions: dose 5-20 nM, time 12-48 hrs
# [17] = target: Cellular tumor antigen p53 (Homo sapiens) (UniProt P04637); assay: Activation of p53 in human A2780 cells assessed as increase phosphorylation of p38 at 5 to 20 nM measured after 24 hrs by Western blot analysis; assay type: cell-based; conditions: filed as activator, dose 5-20 nM
# [18] = Toxicity in BALB/c-nu mouse subcutaneously inoculated with human A2780 cells assessed as morphological changes of liver at 3 to 5 mg/kg, ip administered every day for 20 days by HE staining analysis; assay type: organism-based; conditions: in vivo, sc, 480 h, dose 3-5 mg/kg, time 20 day
# A2780 [19] = assay: Cytotoxicity against human A2780 cells assessed as cell viability in presence of p53 SiRNA 1 measured after 48 hrs by MTT assay; assay type: functional, cell-based
# A2780 [20] = assay: Induction of cell cycle arrest in human A2780 cells assessed as accumulation of cells at S phase at 4 nM measured after 24 hrs by PI staining based ell Cycle Analysis Kit (KeyGEN) (reference value: 10%); assay type: functional
# A2780 [21] = assay: Induction of apoptosis in human A2780 cells assessed as viable cells in presence of SB203580 at 8 nM measured after 24 to 72 hrs by Annexin V-FITC/PI flow cytometry (reference value: 94.2%); assay type: functional; conditions: time 24-72 hrs
# A2780 [22] = assay: Induction of apoptosis in human A2780 cells assessed as late apoptotic cells in presence of SB203580 at 8 nM measured after 24 to 72 hrs by Annexin V-FITC/PI flow cytometry (reference value: 2.54%); assay type: functional; conditions: time 24-72 hrs
# A2780 [23] = assay: Induction of cell cycle arrest in human A2780 cells assessed as accumulation of cells at S phase at 1 nM measured after 24 hrs by PI staining based ell Cycle Analysis Kit (KeyGEN) (reference value: 10%); assay type: functional
# A2780 [24] = assay: Induction of cell cycle arrest in human A2780 cells assessed as accumulation of cells at G1 phase at 4 nM measured after 24 hrs by PI staining based Cell Cycle Analysis Kit (KeyGEN) (reference value: 54.2%); assay type: functional
# A2780 [25] = assay: Induction of apoptosis in human A2780 cells assessed as early apoptotic cells in presence of p53 SiRNA 2 at 4 nM measured after 24 hrs by Annexin V-FITC/PI flow cytometry (reference value: 2.82%); assay type: functional
# A2780 [26] = assay: Induction of apoptosis in human A2780 cells assessed as necrotic cells in presence of p53 SiRNA 2 at 4 nM measured after 24 hrs by Annexin V-FITC/PI flow cytometry (reference value: 0.39%); assay type: functional
# A2780 [27] = assay: In vivo antitumor activity against human A2780 cells subcutaneously inoculated in BALB/c-nu mouse assessed as reduction in tumor volume at 3 to 5 mg/kg, ip administered every day for 20 days; assay type: functional, organism-based; conditions: dose 3-5 mg/kg, time 20.0 day
# Cellular tumor antigen p53 (Homo sapiens), sequence (P04637 whole entry, looked up): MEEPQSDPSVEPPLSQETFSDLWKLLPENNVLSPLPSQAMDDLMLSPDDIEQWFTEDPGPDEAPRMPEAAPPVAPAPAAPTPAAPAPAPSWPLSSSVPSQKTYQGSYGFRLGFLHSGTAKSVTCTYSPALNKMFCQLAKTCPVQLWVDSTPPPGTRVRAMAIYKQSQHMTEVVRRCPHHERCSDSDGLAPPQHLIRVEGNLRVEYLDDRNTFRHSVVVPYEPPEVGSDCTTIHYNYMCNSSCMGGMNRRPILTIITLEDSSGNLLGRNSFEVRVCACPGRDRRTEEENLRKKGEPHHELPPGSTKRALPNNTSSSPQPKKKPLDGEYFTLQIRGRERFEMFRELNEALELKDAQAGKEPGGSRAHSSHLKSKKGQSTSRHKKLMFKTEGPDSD
smiles,measurement,setting,value
CC(C)[C@]12O[C@H]1[C@@H]1O[C@]13[C@]1(O[C@H]1C[C@H]1C4=C(CC[C@@]13C)C(=O)OC4)[C@@H]2O [TRIPTOLIDE],Activity,A2780 [1],27.5%
same,Activity,A2780 [2],inactive
same,Activity,A2780 [3],Active
same,Activity,A2780 [4],inactive
same,Activity,A2780 [5],Dose-Dependent Effect
same,Activity,A2780 [6],48.7%
same,Activity,[7],Non-Toxic
same,Activity,A2780 [8],67.3%
same,inhibition,A2780 [9],inactive
same,Activity,A2780 [10],19.9%
same,Activity,[11],Non-Toxic
same,Activity,A2780 [12],13.1%
same,Activity,A2780 [13],2.33%
same,Activity,A2780 [14],68.9%
same,Activity,A2780 [15],5.02%
same,Activity,A2780 [16],Dose-Dependent Effect
same,Activity,[17],Active
same,Activity,[18],Non-Toxic
same,Activity,A2780 [19],inactive
same,Activity,A2780 [20],30.5%
same,Activity,A2780 [21],69%
same,Activity,A2780 [22],12%
same,Activity,A2780 [23],14.4%
same,Activity,A2780 [24],40%
same,Activity,A2780 [25],12.6%
same,Activity,A2780 [26],6.47%
same,Activity,A2780 [27],Active
